System: VCAM1
Assay: TNF-induced VCAM1 expression in HUVEC (immunoblotting)
Type: cell-based, human
Settings: for TNF-induced VCAM1 expression: inhibitor at 30 μM
Protocol: FIG. […] VCAM-1 expression was determined by immunoblotting from 3 independent experiments. Equal protein loading was confirmed with actin antibody.
To knockdown TXNIP, HUVEC were treated with small interference RNA (siRNA) against human TXNIP coding region. The target sequences were: 5′-AAGCCGTTAGGATCCTGGCTT (SEQ ID NO: 1) for human TXNIP and 5′-AATTCTCCGAACGTGTCACGT-3′ (SEQ ID NO: 2) for control non-silencing siRNA, respectively (Qiagen-Xeragon). HUVEC at >90% confluence in 60-mm dishes were used for transfection. […] This mixture was added to HUVEC in normal culture media (2 ml) and cells were incubated for 1.5 h. The medium was changed and cells recovered for 24 h. The transfection was repeated and after 24 h, cells were used for experiments.
I.P. and I.B. experiments were performed as described previously (Surapisitchat et al., “Fluid Shear Stress Inhibits TNF-Alpha Activation of JNK but not ERK½ or p38 in Human Umbilical Vein Endothelial Cells: Inhibitory Crosstalk Among MAPK Family Members,” Proc Natl Acad Sci USA 98:6476-6481 (2001); Liu et al., “Laminar Flow Inhibits TNF-Induced ASK1 Activation by Preventing Dissociation of ASK1 From its Inhibitor 14-3-3,” J Clin Invest 107:917-923 (2001); Yamawaki et al., “Chronic Physiological Shear Stress Inhibits Tumor Necrosis Factor-Induced Proinflammatory Responses in Rabbit Aorta Perfused ex vivo,” Circulation 108:1619-1625 (2003), each of which is hereby incorporated by reference in its entirety). The resulting autoradiograms were analyzed with NIH Image 1.60. Experiments were performed at least three times and equal loading of protein was ensured by measuring actin expression.

Row | Compound | TNF-induced VCAM1 expression | effect on VCAM1 expression (inhibitor at 10 μM, n=4)
1 | COc1cccc(-c2cc(=O)c3ccccc3o2)c1N [PD98059] | not | –
2 | C[S+]([O-])c1ccc(-c2nc(-c3ccncc3)c(-c3ccc(F)cc3)[nH]2)cc1 (stereo not drawn) [SB203580] | almost completely blocked | –
3 | Oc1c2ccccc2c2c3c(cccc13)N=N2 [SP600125] | – | no effect

Reference: patent publication US8999944B2, “Thioredoxin interacting protein (TXNIP) as regulator of vascular function” (University of Rochester, priority 2005, dated 2015)
